From patent US9644002B2, “Allosteric modulators of EGFR and constitutively active mutants” (YALE UNIVERSITY, priority 2013, dated 2017) come the findings set out here.

Entries after “also recorded” stand apart in the source; their conditions may differ. Bridge positions count the residues as written; N and C are the ends. Square brackets hold non-standard residues; d marks the D form. Ends that are not written are not given here. R8 = C=CCCCCCC[C@@](C)(N)C(=O)O; S5 = C=CCCC[C@](C)(N)C(=O)O

For one test, the target named is T1, wtEGFR (Homo sapiens, UniProt P00533).
T1 construct: expressed in transfected cells; host or cells: CHO-K1 (transient transfection; lysate used)
Description: Sequestration of EGFR from CHO-K1 lysates by biotinylated peptides on streptavidin beads. It counts as binding. To be noted: 25 μM biotinylated peptide, 1 hour. On the procedure:
CHO-K1 lysates were treated with 25 μM of each biotinylated peptide shown for 1 hour, then incubated with streptavidin-coated beads overnight. Sequestered proteins were eluted, electrophoresed, and immunoblotted to detect EGFR. Band intensities were measured using ImageJ (Schneider et al., 2012, Nat. Meth., 9: 671).
Two additional experiments were performed to evaluate whether the E1^S-induced viability changes and decreases in EGFR and Erk/Akt phosphorylation resulted from a direct interaction with the EGFR JM segment. […] Each biotinylated analog (25 μM) was incubated for 1 hour with lysates from wtEGFR-expressing cells, and then incubated with Mag-Sepharose Streptavidin Beads overnight. A mock reaction lacking a biotinylated analog was run alongside. After washing, the sequestered proteins were eluted, resolved by SDS-PAGE (10%), probed with a commercial anti-EGFR antibody, visualized using a horseradish peroxidase-tagged mouse anti-rabbit secondary antibody, and quantified with chemiluminescent detection. […] Little or no EGFR was sequestered when no biotinylated peptide was added (mock), providing additional support for a direct interaction between the hydrocarbon-stapled peptide E1^S and the juxtamembrane segment of wild type EGFR.

Test [1] deals with EGFR CCH-1 juxtamembrane coiled coil. In words: Bipartite tetracysteine display (ReAsH, TIRF) of intra-dimer coiled coil formation. It counts as cell-based. Particulars: CHO cells; for change of EGF-induced ReAsH fluorescence: EGFR CCH-1, 1 μM ligand 1 hour, 100 ng/mL EGF. As for the experimental part: FIG. 21 is a graph depicting the results of example experiments conducted to monitor EGFR intra-dimer coiled coil formation using TIRF and bipartite tetracysteine display. CHO cells were transiently transfected with EGFR CCH-1, treated with 1 μM of the indicated ligand for 1 hour, stimulated with 100 ng/mL EGF for 30 minutes, and labeled with ReAsH (Scheck et al., 2012, ACS Chem Biol, 7: 1367). […] Error bars represent standard error of the mean. *p<0.05, **p<0.01, ***p<0.001, ****p<0.0001, one-way ANOVA with Bonferroni post-analysis accounting for multiple comparisons.
Experiments were conducted using CHO cells expressing an EGFR variant (CCH-1) with a cysteine pair within the JM-A whose location supports ReAsH binding and fluorescence upon EGF-induced coiled coil assembly 24. […] CHO cells transiently expressing the EGFR variant CCH-1 on the cell surface were exposed to native and hydrocarbon-stapled peptides, stimulated with EGF, incubated with ReAsH, and the fluorescence increase due to ReAsH quantified using total internal reflectance fluorescence microscopy (TIR-FM). […] Identical results were observed when cells were treated first with EGF and then with the indicated peptides. None of the peptides tested had any effect on the extent of ReAsH fluorescence in the absence of EGF. […] This work validates the juxtamembrane segment as a viable allosteric target for inhibitor design.

Test [2] deals with A431, H2030, H3255, H1975 and SK-N-MC cells. In words: Cell viability across the cell line panel. Format: cell-based. Particulars: for effect on cell viability: all cell lines tested, 18 h incubation. The text has this: Error bars show standard error of the mean.
In another test the target is EGFR (Homo sapiens, UniProt P00533). In words: Immunoblot of EGFR phosphorylation in A431 cells. To be noted: 10 μM, Akt and Erk1/2 positions. It counts as cell-based. As for the experimental part: A431 cells were treated with 10 μM of the ligand shown for 2 hours, stimulated with 10 ng/mL EGF, then lysed, immunoblotted, and visualized. Plots illustrate the increase or decrease in the intensity of the indicated phospho-protein band between treated and untreated cells. Error bars representing standard error of the mean over at least 4 trials.
Activation of EGFR upon growth factor binding leads to a well characterized pattern of Tyr and Ser/Thr phosphorylation events that initiate downstream signaling networks (Olayioye, et al., 2000, EMBO J., 19, 3159). Molecules that block growth factor binding to the extracellular domain, or ATP binding to the intracellular kinase domain, inhibit the phosphorylation of both EGFR and downstream factors such as Erk and Akt (Yarden, et al., 2012, Nat. Rev. Cancer, 12, 553). Immunoblots were used to evaluate whether the effects of JM-A-derived ligands on the viability of EGFR-dependent cell lines correlated with their effects on EGFR phosphorylation and the activation of downstream factors. Specifically, phosphorylation was probed at EGFR tyrosines 845, 1045, 1068, 1086, and 1173, as well as for phospho-Akt (Ser473) and phospho-Erk1/2 (T202/Y204) (FIG. 19).

As for “^BJM-WT: biotinylated analog of JM-WT (VRKRTLRRLLQERELVE; also: biotinylated)”, in the test with wtEGFR, the “sequestration of full length wild type EGFR from cell lysates” value was “did not”.
Same read-out and setting: in the case of “^BT1^S: biotinylated analog of T1^S (VRKRT[S5]RRL[S5]QERELVE; staple 6-10 (inferred); also: biotinylated)” it was “did not”.
In the case of “JM-WT: unmodified EGFR JM-A peptide VRKRTLRRLLQERELVE (SEQ ID NO: 1)”, the “change of EGF-induced ReAsH fluorescence” value in test [1] is reported as “unchanged”. Besides, the “effect on cell viability” value in test [2] is on record as “none of the cells are sensitive; also recorded: inability to decrease the viability”.
As to “^BE1ΔL^S: biotinylated analog of E1ΔL^S (VRKR[R8]ARRAAQ[S5]RELVE; staple 5-12; also: biotinylated, site of biotin not given here)”, the “sequestration of full length wild type EGFR from cell lysates” value with wtEGFR is recorded as “sequestered; also recorded: sequester wtEGFR”.
For the substance “TE-64562: polypeptide containing the EGFR juxtamembrane segment fused to HIV Tat (Boran et al., 2012) (YGRKKRRQRRRVRKRTLRRLLQERELVE) [reference compound]”, in test [2] (72 h incubation), the “effect on cell viability after 72 h” value was “potency is mitigated significantly”. The “effect on cell viability” value in test [2] is recorded as “moderate decreases in viability”. The “pattern of phosphorylation changes over all probed positions” value with EGFR is “paralleled”.
Turning to “E1ΔL^S: hydrocarbon-stapled VRKRZARRAAQXRELVE (SEQ ID NO: 19; E1ΔL), leucines replaced by alanine (VRKR[R8]ARRAAQ[S5]RELVE; staple 5-12)”, the “change of EGF-induced ReAsH fluorescence” value in test [1] is on record as “significant loss in ReAsH fluorescence”. In test [1] (EGFR CCH-1, lower concentration than 1 μM), the “change of EGF-induced ReAsH fluorescence at a lower concentration” value was “effectively reduced the ReAsH signal”. Also, the “effect on cell viability” value in test [2] is “more modest effects on cell viability”. In the test with EGFR, the “pattern of phosphorylation changes over all probed positions” value is “little or no decrease in phosphorylation at any position”.
